The target in series [1] is T1, N-type Ca2+ channel (Homo sapiens, UniProt Q00975).
T1 construct: host or cells: IMR-32 cells, differentiated with dibutyryl cAMP and bromodeoxyuridine
Briefly: Measurement of N-type Ca2+ channel blocking potencies in IMR-32 cells using the fluorescent Ca2+ indicator Indo-1. The class given is cell-based. To be noted: for IMR-32 % of Blockade @ μM: 5 μM nitrendipine; for IC50: K+-stimulated Ca2+ flux, 5 μM nitrendipine to block L-type channels, some values marked (est.). As for the experimental part:
Measurement of N-type Ca^2+ Channel Blocking Potencies of Compounds in IMR-32 Cells Using the Fluorescent Ca^2+ Indicator Indo-1
IMR-32 cells are a human tumoral cell line of neural origin. […] Calcium flux into these cells may be induced by stimulation with elevated potassium concentrations. The L-channel component of calcium flux may be blocked by adding 5 μM nitrendipine. The remaining component of calcium entry into the IMR-32 cells is due to calcium flux through N-type calcium channels. Intracellular calcium concentrations are measured using the fluorescent calcium indicator Indo-1. The effect of drug concentration on calcium uptake is studied.
The IMR-32 cell line was obtained from the American Type Culture Collection (Rockville, Md.). Cells were grown in Eagle's Minimum Essential Medium with Earle's salts supplemented with 10% fetal bovine serum, 2 mM L-Gln and antibiotic/antimycotic mixture (Gibco). At approximately 80% confluency, differentiation was induced by the addition of 1 mM dibutyryl cAMP and 2.5 μM bromodeoxyuridine to the medium. After 7 to 13 days of differentiation, cells were detached using 0.5 mM EDTA and loaded with 5 μM Indo-1 acetoxymethyl ester (Molecular Probes, Eugene, Oreg.) at 30° C. for 45 minutes Loaded cells were washed twice, resuspended (˜10^7 cells/mL) in assay buffer (10 mM HEPES/Tris pH 7.4 in Hank's Balanced Salt Solution without bicarbonate or phenol red containing 0.5% bovine serum albumin) and kept on ice until use. Fluorescence measurements were carried out in a Photon Technology International (PTI, South Brunswick, N.J.) Model RF-F3004 spectrofluorometer with dual emission monochromators using excitation at 350 nm and emission at 400 and 490 nm. The instrument was equipped with a thermostated cuvette holder with stirring capabilities, as well as with a computer-controlled pump which allowed for reagent addition during measurement. Instrument control and data collection was done by PTI's OSCAR software running on an IBM compatible computer. Different concentrations of the test compounds (60 μL in dimethyl sulfoxide) were added to 5.94 mL of assay buffer containing approximately 3×10^6 loaded cells, and 5 μM nitrendipine (in 30 μL EtOH) to block L-type Ca^2+ channels. Samples were incubated for 10 minutes at 30° C. and then aliquoted into three 10×10 mm disposable acrylic cuvettes. Emission signals at 400 and 490 nm were acquired from each cuvette at 30° C. for 50 seconds. At 20 seconds after the start of reading, cells were depolarized by the addition of 160 μL of stimulation solution (1 M KCl, 68 mM CaCl2) to the cuvette via the computer-controlled pump. Ratio of dual emission signals (400 nm/490 nm), which is proportional to intracellular Ca^2+ concentration, was plotted against time, and the difference between maximal response after stimulation and basal value (before stimulation) was determined. Values obtained in this way were plotted as a function of drug concentration. IC50 values of test compounds were calculated by fitting a 4-parameter logistic function to the data using the least squares method.
A general note: A change in cytosolic calcium serves as a functional read-out for many receptors and channels.

Series [2] deals with DBA/2 mice. Briefly: Audiogenic (sound-induced) seizure test in DBA/2 mice, protection from tonic seizures. The format is in vivo. To be noted: 30 mg/kg, intravenous, tested 15 or 45 minutes after injection. As for the experimental part:
In Vivo Biological Protocol
A compound of the present invention was dissolved in water using 10% (weight/volume) Emulphor (GAF Corp., Wayne, N.J.) surfactant. Substances were administered by intravenous injection into the retro-orbital venous sinus. All testing was performed 15 minutes or 45 minutes after drug injection. All the male mice, 3 to 4 weeks old, were obtained from Jackson Laboratories, Bar Harbour, Me. Immediately before anticonvulsant testing, mice were placed upon a wire mesh, 4 inches square suspended from a steel rod. The square was slowly inverted through 180 degree and mice observed for 30 seconds. Any mouse falling from the wire mesh was scored as ataxia.
Mice were placed into an enclosed acrylic plastic chamber (21 cm height, approximately 30 cm diameter) with a high-frequency speaker (4 cm diameter) in the center of the top lid. An audio signal generator (Protek Model B-810) was used to produce a continuous sinusoidal tone that was swept linearly in frequency between 8 kHz and 16 kHz once each 10 msec. The average sound pressure level (SPL) during stimulation was approximately 100 dB at the floor of the chamber. Mice were placed within the chamber and allowed to acclimatize for 1 minute. DBA/2 mice in the vehicle-treated group responded to the sound stimulus (applied until tonic extension occurred, or for a maximum of 60 sec) with a characteristic seizure sequence consisting of wild running followed by clonic seizures, and later by tonic extension, and finally by respiratory arrest and death in 80% or more of the mice. In vehicle-treated mice, the entire sequence of seizures to respiratory arrest lasts approximately 15 to 20 seconds.
The incidence of all the seizure phases in the drug-treated and vehicle-treated mice was recorded, and the occurrence of tonic seizures were used for calculating anticonvulsant ED50 values by probit analysis. Mice were used only once for testing at each time and dose point.

Counter-ions that a name gives are not always drawn.

T1 sequence (Q00975 whole entry): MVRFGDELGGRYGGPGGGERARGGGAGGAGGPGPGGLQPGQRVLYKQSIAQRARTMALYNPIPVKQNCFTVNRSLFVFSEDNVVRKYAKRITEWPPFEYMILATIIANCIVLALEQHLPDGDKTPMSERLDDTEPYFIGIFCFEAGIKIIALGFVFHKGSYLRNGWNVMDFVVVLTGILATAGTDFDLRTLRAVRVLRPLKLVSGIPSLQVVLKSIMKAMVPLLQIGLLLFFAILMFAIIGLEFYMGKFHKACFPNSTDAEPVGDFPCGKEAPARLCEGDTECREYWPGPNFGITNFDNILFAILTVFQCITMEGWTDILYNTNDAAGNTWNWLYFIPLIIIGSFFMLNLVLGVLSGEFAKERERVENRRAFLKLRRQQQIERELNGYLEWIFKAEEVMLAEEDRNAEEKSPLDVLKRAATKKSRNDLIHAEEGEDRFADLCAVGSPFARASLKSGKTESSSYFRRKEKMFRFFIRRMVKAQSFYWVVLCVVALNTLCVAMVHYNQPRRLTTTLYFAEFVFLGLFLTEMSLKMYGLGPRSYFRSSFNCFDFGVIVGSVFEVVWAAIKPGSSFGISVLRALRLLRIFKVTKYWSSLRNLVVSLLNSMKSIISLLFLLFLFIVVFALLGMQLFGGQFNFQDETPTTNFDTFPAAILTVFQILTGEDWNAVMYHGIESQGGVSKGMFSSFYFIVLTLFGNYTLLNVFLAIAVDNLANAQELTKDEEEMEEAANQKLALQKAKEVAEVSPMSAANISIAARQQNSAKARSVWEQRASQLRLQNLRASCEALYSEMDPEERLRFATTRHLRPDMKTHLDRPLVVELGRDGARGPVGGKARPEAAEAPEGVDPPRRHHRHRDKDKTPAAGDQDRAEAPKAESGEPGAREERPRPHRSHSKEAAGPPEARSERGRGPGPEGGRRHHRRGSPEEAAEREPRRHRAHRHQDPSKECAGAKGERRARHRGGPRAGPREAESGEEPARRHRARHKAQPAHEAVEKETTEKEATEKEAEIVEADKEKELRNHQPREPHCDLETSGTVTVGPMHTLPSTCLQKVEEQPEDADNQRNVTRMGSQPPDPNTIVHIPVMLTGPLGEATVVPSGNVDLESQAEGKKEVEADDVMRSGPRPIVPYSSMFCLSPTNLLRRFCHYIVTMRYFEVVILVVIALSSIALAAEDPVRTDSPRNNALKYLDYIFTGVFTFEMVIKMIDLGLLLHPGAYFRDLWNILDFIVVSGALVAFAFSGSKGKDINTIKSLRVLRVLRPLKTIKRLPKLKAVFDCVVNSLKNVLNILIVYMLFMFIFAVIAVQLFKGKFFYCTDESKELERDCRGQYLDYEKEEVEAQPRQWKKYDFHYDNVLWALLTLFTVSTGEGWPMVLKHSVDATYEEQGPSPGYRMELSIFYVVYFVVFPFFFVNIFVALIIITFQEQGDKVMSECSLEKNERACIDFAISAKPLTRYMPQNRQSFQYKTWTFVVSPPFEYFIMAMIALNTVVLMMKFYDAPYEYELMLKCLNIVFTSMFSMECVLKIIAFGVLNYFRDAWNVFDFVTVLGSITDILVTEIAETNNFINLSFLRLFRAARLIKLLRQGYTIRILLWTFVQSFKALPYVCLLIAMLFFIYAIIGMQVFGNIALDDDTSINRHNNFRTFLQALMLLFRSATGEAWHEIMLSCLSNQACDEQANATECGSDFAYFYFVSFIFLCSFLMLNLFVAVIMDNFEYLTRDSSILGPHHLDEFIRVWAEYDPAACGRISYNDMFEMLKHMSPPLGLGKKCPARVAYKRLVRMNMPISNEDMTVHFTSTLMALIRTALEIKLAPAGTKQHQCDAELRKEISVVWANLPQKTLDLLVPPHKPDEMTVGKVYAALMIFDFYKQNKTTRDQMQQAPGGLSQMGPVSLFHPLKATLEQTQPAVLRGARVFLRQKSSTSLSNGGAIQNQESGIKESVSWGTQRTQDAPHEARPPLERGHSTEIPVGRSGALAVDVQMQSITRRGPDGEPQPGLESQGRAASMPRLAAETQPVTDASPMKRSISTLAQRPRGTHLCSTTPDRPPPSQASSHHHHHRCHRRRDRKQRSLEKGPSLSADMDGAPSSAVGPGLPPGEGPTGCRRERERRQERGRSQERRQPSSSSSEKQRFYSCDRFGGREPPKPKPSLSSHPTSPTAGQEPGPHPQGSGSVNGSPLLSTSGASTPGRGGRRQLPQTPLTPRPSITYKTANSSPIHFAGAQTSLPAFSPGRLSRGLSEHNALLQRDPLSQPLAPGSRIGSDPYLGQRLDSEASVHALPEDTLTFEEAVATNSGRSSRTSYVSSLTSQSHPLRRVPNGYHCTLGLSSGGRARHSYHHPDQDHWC
T1 sequence (P54289 25-956 partner limits assumed): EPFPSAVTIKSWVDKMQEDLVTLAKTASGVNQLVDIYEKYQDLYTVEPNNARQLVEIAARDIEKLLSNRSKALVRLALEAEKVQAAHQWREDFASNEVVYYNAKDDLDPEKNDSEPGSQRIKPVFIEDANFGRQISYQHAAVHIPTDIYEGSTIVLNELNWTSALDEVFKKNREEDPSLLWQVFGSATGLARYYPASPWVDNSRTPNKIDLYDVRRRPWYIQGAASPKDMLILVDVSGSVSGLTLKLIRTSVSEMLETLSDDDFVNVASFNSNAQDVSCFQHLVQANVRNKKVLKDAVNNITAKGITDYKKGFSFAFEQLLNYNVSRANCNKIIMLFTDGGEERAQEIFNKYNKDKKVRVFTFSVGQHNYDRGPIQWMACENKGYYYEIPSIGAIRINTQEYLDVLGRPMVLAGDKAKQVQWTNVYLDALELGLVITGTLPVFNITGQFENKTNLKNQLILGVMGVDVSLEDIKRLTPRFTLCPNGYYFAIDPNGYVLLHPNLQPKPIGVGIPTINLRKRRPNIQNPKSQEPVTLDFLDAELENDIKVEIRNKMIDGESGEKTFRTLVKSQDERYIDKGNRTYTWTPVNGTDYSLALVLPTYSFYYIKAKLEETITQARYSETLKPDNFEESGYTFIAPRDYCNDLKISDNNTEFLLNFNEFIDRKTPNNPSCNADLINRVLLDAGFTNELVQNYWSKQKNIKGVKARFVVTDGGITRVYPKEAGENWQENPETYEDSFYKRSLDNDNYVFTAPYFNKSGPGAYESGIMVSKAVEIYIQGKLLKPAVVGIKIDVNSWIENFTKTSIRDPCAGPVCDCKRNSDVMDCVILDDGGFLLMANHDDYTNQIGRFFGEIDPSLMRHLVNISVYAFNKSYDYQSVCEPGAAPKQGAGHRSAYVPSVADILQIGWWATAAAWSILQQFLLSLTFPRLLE
T1 sequence (P54289 957-1103 partner limits assumed): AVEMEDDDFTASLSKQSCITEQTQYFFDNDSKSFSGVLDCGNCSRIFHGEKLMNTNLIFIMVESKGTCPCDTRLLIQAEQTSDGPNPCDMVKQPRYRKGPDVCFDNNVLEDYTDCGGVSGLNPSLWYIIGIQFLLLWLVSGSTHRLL
T1 sequence (P54284 whole entry partner): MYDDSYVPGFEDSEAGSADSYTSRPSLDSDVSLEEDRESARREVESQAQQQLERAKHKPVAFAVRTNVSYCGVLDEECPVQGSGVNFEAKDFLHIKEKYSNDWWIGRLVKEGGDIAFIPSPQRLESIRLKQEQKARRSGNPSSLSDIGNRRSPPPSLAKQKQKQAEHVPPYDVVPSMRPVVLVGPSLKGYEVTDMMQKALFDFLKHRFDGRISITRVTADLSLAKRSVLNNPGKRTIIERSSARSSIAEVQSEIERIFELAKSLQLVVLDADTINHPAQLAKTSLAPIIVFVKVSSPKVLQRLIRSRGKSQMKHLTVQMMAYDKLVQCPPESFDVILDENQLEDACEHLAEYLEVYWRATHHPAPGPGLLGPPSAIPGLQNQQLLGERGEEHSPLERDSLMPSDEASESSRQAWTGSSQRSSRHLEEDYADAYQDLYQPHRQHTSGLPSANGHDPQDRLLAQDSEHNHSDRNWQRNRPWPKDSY

In general, melting point refers to the temperature of the solid-liquid transition. The molecule `CC(C)(C)NC(=O)[C@H](Cc1ccc(OCc2ccccc2)cc1)NC(=O)[C@H](Cc1ccncc1)NC1C=CCCC1` (stereo partly drawn) (as salt: HCl) [Example 2, [S-(R*,R*)]—N-[2-(4-Benzyloxy-phenyl)-1-tert-butylcarbamoyl-ethyl]-2-(cyclohex-2-enylamino)-3-pyridin-4-yl-propionamide] showed a melting point of 163 to 164 °C.
Still for that read-out and setting: to `CC(C)(C)NC(=O)[C@H](Cc1ccc(OCc2ccccc2)cc1)NC(=O)[C@H](Cc1cscn1)NC1C=CCCC1` (stereo partly drawn) (as salt: HCl) [Example 6, [S—(R*,R*)]—N-[2-(4-Benzyloxy-phenyl)-1-tert-butylcarbamoyl-ethyl]-2-(cyclohex-2-enylamino)-3-thiazol-4-yl-propionamide] belongs 243 to 244 °C; to `CC(C)(C)NC(=O)[C@H](Cc1ccc(OCc2ccccc2)cc1)NC(=O)[C@H](Cc1c[nH]cn1)NCC1CCCCC1` (as salt: salt) [Example 8, [S—(R*,R*)]—N-[2-(4-Benzyloxy-phenyl)-1-tert-butylcarbamoyl-ethyl]-2-(cyclohexylmethyl-amino)-3-(1H-imidazol-4-yl)-propionamide], 163 to 165 °C.
As to `CC(C)(C)NC(=O)[C@H](Cc1ccc(OCc2ccccc2)cc1)NC(=O)[C@H](Cc1cscn1)NC1CCCCC1` (relative stereo) [Example 7, [S—(R*,R*)]-N-[2-(4-Benzyloxy-phenyl)-1-tert-butylcarbamoyl-ethyl]-2-cyclohexylamino-3-thiazol-4-yl-propionamide], the “IMR-32 % of Blockade @ μM” value in series [1] (@ 1 μM) came to 67%; in series [1] (@ 10 μM), 95%.
On the same counts, the results for `CC(C)N[C@@H](Cc1c[nH]cn1)C(=O)N[C@@H](Cc1ccc(OCc2ccccc2)cc1)C(=O)NC(C)(C)C` (relative stereo) [Example 9, [S—(R*,R*)]N-[2-(4-Benzyloxy-phenyl)-1-tert-butylcarbamoyl-ethyl]-2-(1-methylethyl-amino)-3-(1H-imidazol-4-yl)-propionamide] are 11% and 55%.
As usually defined, the IC50 is the concentration that inhibits the measured activity by half. Low readings indicate inhibition by little substance, high ones a need for much substance. Regarding `CC(C)CCN[C@@H](Cc1cccnc1)C(=O)NC(Cc1ccc(OCc2ccccc2)cc1)C(=O)NC(C)(C)C` (stereo in doubt) [Example 3, [S-(R*,R*)]—N-[2-(4-Benzyloxy-phenyl)-1-tert-butylcarbamoyl-ethyl]-2-(3-methyl-butylamino)-3-pyridin-3-yl-propionamide], the “DBA/2 mice % protection (dose)” value in series [2] worked out at 80% @ 30 mg/kg. In addition, in series [1], the midpoint of inhibition, the IC50, lay at 770 nM.
On to `CC(C)CCN[C@@H](Cc1cscn1)C(=O)NC(Cc1ccc(OCc2ccccc2)cc1)C(=O)NC(C)(C)C` (stereo in doubt) [Example 5, [S—(R*,R*)]—N-[2-(4-Benzyloxy-phenyl)-1-tert-butylcarbamoyl-ethyl]-2-(3-methyl-butylamino)-3-thiazol-4-yl-propionamide], for which the “DBA/2 mice % protection (dose)” value in series [2] is on record as 100% @ 30 mg/kg. Besides, the “IMR-32 % of Blockade @ μM” value in series [1] (@ 1 μM) is recorded as 79%; in series [1] (@ 10 μM) it was 97%.
Turning to `CC(C)CCN[C@@H](Cc1ccncc1)C(=O)N[C@@H](Cc1ccc(OCc2ccccc2)cc1)C(=O)NC(C)(C)C` [Example 1, [S—(R*,R*)]—N-[2-(4-Benzyloxy-phenyl)-1-tert-butylcarbamoyl-ethyl]-2-(3-methyl-butylamino)-3-pyridin-4-yl-propionamide], 400 nM corresponded to half-maximal inhibition in series [1] (IC50).
Same read-out and setting: the result for `CC(C)(C)NC(=O)[C@H](Cc1ccc(OCc2ccccc2)cc1)NC(=O)[C@H](Cc1ccncc1)NC1C=CCCC1` (stereo partly drawn) [Example 2, [S-(R*,R*)]—N-[2-(4-Benzyloxy-phenyl)-1-tert-butylcarbamoyl-ethyl]-2-(cyclohex-2-enylamino)-3-pyridin-4-yl-propionamide] reads 1300 nM.
Consider `CC(C)(C)NC(=O)[C@H](Cc1ccc(OCc2ccccc2)cc1)NC(=O)[C@H](Cc1cccnc1)NC1C=CCCC1` (stereo partly drawn) [Example 4, [S—(R*,R*)]—N-[2-(4-Benzyloxy-phenyl)-1-tert-butylcarbamoyl-ethyl]-2-(cyclohex-2-enylamino)-3-pyridin-3-yl-propionamide], for which the “DBA/2 mice % protection (dose)” value in series [2] is 60% @ 30 mg/kg. In series [1], this molecule returned an IC50 of 1000 nM.
On to `CC(C)(C)NC(=O)[C@H](Cc1ccc(OCc2ccccc2)cc1)NC(=O)[C@H](Cc1cscn1)NC1C=CCCC1` (stereo partly drawn) [Example 6, [S—(R*,R*)]—N-[2-(4-Benzyloxy-phenyl)-1-tert-butylcarbamoyl-ethyl]-2-(cyclohex-2-enylamino)-3-thiazol-4-yl-propionamide], for which inhibition in series [1] was half-maximal at 1100 nM (IC50).
Still for that read-out and setting: to `CC(C)(C)NC(=O)[C@H](Cc1ccc(OCc2ccccc2)cc1)NC(=O)[C@H](Cc1c[nH]cn1)NCC1CCCCC1` [Example 8, [S—(R*,R*)]—N-[2-(4-Benzyloxy-phenyl)-1-tert-butylcarbamoyl-ethyl]-2-(cyclohexylmethyl-amino)-3-(1H-imidazol-4-yl)-propionamide] belongs 670 nM.
